Results published in ChEMBL document CHEMBL3880410, “Novel oxabispidine compounds and their use in the treatment of cardiac arrhythmias” (2009).

What follows are compounds tested on Cavia porcellus (assay: Anti-cardiac arrhythmia activity in anaesthetised guinea pig assessed as cumulative dose inducing prolongation of monophasic action potential duration by 10% from baseline administered as first dose infusion in 0.2 mL/kg into jugular vein catheter for 30 secs followed by next dosing after 5 mins for 6 to 10 consecutive times by electrophysiology based assay).
Type: functional

Row | Compound | D10
1 | CN(CCN1CC2CN(CCc3ccc(F)c(F)c3)CC(C1)O2)S(=O)(=O)c1ccc(C#N)cc1 | >5.5 mg/kg
2 | N#Cc1ccc(OCCCN2CC3CN(CCNS(=O)(=O)c4cccc(C#N)c4)CC(C2)O3)cc1 | >5.5 mg/kg
3 | Cc1noc(C)c1S(=O)(=O)NCCCN1CC2CN(Cc3ccc(C#N)cc3)CC(C1)O2 | >5.5 mg/kg
4 | N#Cc1ccc(S(=O)(=O)NCCCN2CC3CN(CCOc4ccc(C#N)cc4F)CC(C2)O3)cc1 | >5.5 mg/kg
5 | N#Cc1ccc(OCCN2CC3CN(CCNS(=O)(=O)c4ccc5c(c4)CCO5)CC(C2)O3)c(F)c1 | >5.5 mg/kg
6 | O=S(=O)(NCCN1CC2CN(CCc3cccc(F)c3)CC(C1)O2)c1ccc(F)cc1 | >5.5 mg/kg
7 | N#Cc1ccc(S(=O)(=O)NCCN2CC3CN(CCc4ccccc4)CC(C2)O3)cc1 | >5.5 mg/kg
8 | N#Cc1ccc(OCCN2CC3CN(CCNS(=O)(=O)c4ccccc4F)CC(C2)O3)cc1 | >5.5 mg/kg
9 | Cc1noc(C)c1S(=O)(=O)NCCN1CC2CN(Cc3ccc(C#N)cc3)CC(C1)O2 | >5.5 mg/kg
10 | N#Cc1ccc(OCCN2CC3CN(CCNS(=O)(=O)c4ccc(F)cc4F)CC(C2)O3)cc1 | >5.5 mg/kg
11 | CN(CCN1CC2CN(Cc3ccc(C#N)cc3)CC(C1)O2)S(=O)(=O)c1ccc(C#N)cc1 | >5.5 mg/kg
12 | CN(CCN1CC2CN(Cc3ccccc3)CC(C1)O2)S(=O)(=O)c1ccc(C#N)cc1 | >5.5 mg/kg
13 | N#Cc1ccc(S(=O)(=O)NCCCN2CC3CN(CCc4ccc(F)cc4)CC(C2)O3)cc1 | >5.5 mg/kg
14 | CN(CCN1CC2CN(Cc3ccc(C#N)cc3F)CC(C1)O2)S(=O)(=O)c1ccc(C#N)cc1 | >5.5 mg/kg
15 | CN(CCN1CC2CN(Cc3ccc(F)cc3)CC(C1)O2)S(=O)(=O)c1ccc(C#N)cc1 | >5.5 mg/kg
16 | O=S(=O)(NCCN1CC2CN(CCc3ccccc3F)CC(C1)O2)c1ccc(F)cc1 | >5.5 mg/kg
17 | Cc1noc(C)c1S(=O)(=O)NCCCN1CC2CN(CCOc3ccc(C#N)cc3)CC(C1)O2 | >5.5 mg/kg
18 | N#Cc1ccc(OCCN2CC3CN(CCCNS(=O)(=O)c4ccccc4F)CC(C2)O3)cc1 | >5.5 mg/kg
19 | N#Cc1ccc(S(=O)(=O)NCCCN2CC3CN(CCc4c(F)cccc4F)CC(C2)O3)cc1 | >5.5 mg/kg
20 | N#Cc1ccc(S(=O)(=O)NCCN2CC3CN(CCc4ccc(Cl)cc4)CC(C2)O3)cc1 | >5.5 mg/kg
21 | Cc1noc(C)c1CN1CC2CN(CCS(=O)(=O)N(Cc3ccc(C#N)cc3)Cc3c(C)noc3C)CC(C1)O2 | >5.5 mg/kg
22 | CN(CCN1CC2CN(CCOc3ccc(C#N)cc3)CC(C1)O2)S(=O)(=O)c1ccc2c(c1)CCO2 | >5.5 mg/kg
23 | N#Cc1ccc(S(=O)(=O)NCCCN2CC3CN(CCc4ccccc4F)CC(C2)O3)cc1 | >5.5 mg/kg
24 | N#Cc1ccc(S(=O)(=O)NCCCN2CC3CN(CCc4cccc(F)c4)CC(C2)O3)cc1 | >5.5 mg/kg
25 | CN(CCN1CC2CN(CCOc3ccc(C#N)cc3F)CC(C1)O2)S(=O)(=O)c1ccc2c(c1)CCO2 | >5.5 mg/kg
26 | N#Cc1ccc(S(=O)(=O)NCCN2CC3CN(CCCOc4cccc(F)c4)CC(C2)O3)cc1 | >5.5 mg/kg

Row | Compound | D10
27 | N#Cc1ccc(S(=O)(=O)NCCN2CC3CN(CCCOc4ccc(F)cc4F)CC(C2)O3)cc1 | >5.5 mg/kg
28 | Cc1noc(C)c1CN1CC2CN(CCS(=O)(=O)NCc3ccc(C#N)cc3)CC(C1)O2 | >5.5 mg/kg
29 | N#Cc1ccc(S(=O)(=O)NCCN2CC3CN(CCc4ccc(C(F)(F)F)cc4)CC(C2)O3)cc1 | >5.5 mg/kg
30 | N#Cc1ccc(S(=O)(=O)NCCN2CC3CN(CCc4ccc(F)cc4F)CC(C2)O3)cc1 | >5.5 mg/kg
31 | Cc1noc(C)c1S(=O)(=O)NCCCN1CC2CN(CCCOc3ccc(C#N)cc3)CC(C1)O2 | >5.5 mg/kg
32 | O=S(=O)(NCCN1CC2CN(Cc3ccc(F)cc3)CC(C1)O2)c1ccc(F)cc1 | >5.5 mg/kg
33 | N#Cc1ccc(S(=O)(=O)NCCN2CC3CN(CCCOc4ccc(C#N)cc4F)CC(C2)O3)cc1 | >5.5 mg/kg
34 | O=S(=O)(NCCN1CC2CN(CCc3ccc(F)cc3)CC(C1)O2)c1ccc(F)cc1 | >5.5 mg/kg
35 | N#Cc1ccc(S(=O)(=O)NCCCN2CC3CN(CCCOc4ccc(F)cc4)CC(C2)O3)cc1 | >5.5 mg/kg
36 | N#Cc1ccc(CCN2CC3CN(CCNS(=O)(=O)c4ccc(F)cc4)CC(C2)O3)cc1 | >5.5 mg/kg
37 | N#Cc1ccc(OCCN2CC3CN(CCNS(=O)(=O)c4cccc(F)c4)CC(C2)O3)c(F)c1 | >5.5 mg/kg
38 | N#Cc1ccc(OCCN2CC3CN(CCCNS(=O)(=O)c4ccc(F)cc4)CC(C2)O3)c(F)c1 | >5.5 mg/kg
39 | Cc1noc(C)c1S(=O)(=O)NCCN1CC2CN(CCOc3ccc(C#N)cc3F)CC(C1)O2 | >5.5 mg/kg
40 | N#Cc1ccc(S(=O)(=O)NCCN2CC3CN(CCOc4c(F)cccc4F)CC(C2)O3)cc1 | >5.5 mg/kg
41 | N#Cc1ccc(S(=O)(=O)NCCN2CC3CN(CCCOc4c(F)cc(C#N)cc4F)CC(C2)O3)cc1 | >5.5 mg/kg
42 | N#Cc1ccc(OCCN2CC3CN(CCNS(=O)(=O)c4ccc(F)cc4)CC(C2)O3)c(F)c1 | >5.5 mg/kg
43 | N#Cc1ccc(OCCCN2CC3CN(CCCNS(=O)(=O)Cc4ccccc4)CC(C2)O3)cc1 | >5.5 mg/kg
44 | CN(CCN1CC2CN(CCc3ccc(Cl)cc3)CC(C1)O2)S(=O)(=O)c1ccc(C#N)cc1 | >5.5 mg/kg
45 | O=S(=O)(NCCN1CC2CN(CCc3ccccc3)CC(C1)O2)c1ccc(F)cc1 | >5.5 mg/kg
46 | N#Cc1ccc(OCCN2CC3CN(CCCNS(=O)(=O)c4ccccc4)CC(C2)O3)c(F)c1 | >5.5 mg/kg
47 | N#Cc1ccc(OCCN2CC3CN(CCNS(=O)(=O)c4cccc(C#N)c4)CC(C2)O3)cc1 | >5.5 mg/kg
48 | CN(CCN1CC2CN(CCc3ccccc3F)CC(C1)O2)S(=O)(=O)c1ccc(C#N)cc1 | >5.5 mg/kg
49 | CN(CCN1CC2CN(CCc3ccc(F)cc3F)CC(C1)O2)S(=O)(=O)c1ccc(C#N)cc1 | >5.5 mg/kg
50 | N#Cc1ccc(S(=O)(=O)NCCN2CC3CN(Cc4noc5ccccc45)CC(C2)O3)cc1 | >5.5 mg/kg
51 | N#Cc1ccc(CNS(=O)(=O)CCN2CC3CN(Cc4ccccc4C#N)CC(C2)O3)cc1 | >5.5 mg/kg
52 | N#Cc1ccc(CNS(=O)(=O)CCN2CC3CN(Cc4ccc(C#N)cc4)CC(C2)O3)cc1 | >5.5 mg/kg

Row | Compound | D10
53 | CC(C)S(=O)(=O)NCCCN1CC2CN(CCCOc3ccc(C#N)cc3)CC(C1)O2 | >5.5 mg/kg
54 | N#Cc1ccc(OCCN2CC3CN(CCNS(=O)(=O)Cc4ccccc4)CC(C2)O3)c(F)c1 | >5.5 mg/kg
55 | N#Cc1ccc(S(=O)(=O)NCCCN2CC3CN(CCOc4c(F)cccc4F)CC(C2)O3)cc1 | >5.5 mg/kg
56 | N#Cc1ccc(S(=O)(=O)NCCN2CC3CN(CCc4c(F)cccc4F)CC(C2)O3)cc1 | >5.5 mg/kg
57 | CN(CCN1CC2CN(CCCOc3ccc(F)cc3F)CC(C1)O2)S(=O)(=O)c1ccc(C#N)cc1 | >5.5 mg/kg
58 | N#Cc1ccc(S(=O)(=O)NCCCN2CC3CN(Cc4ccc(F)cc4)CC(C2)O3)cc1 | >5.5 mg/kg
59 | N#Cc1ccc(S(=O)(=O)NCCN2CC3CN(CCc4ccccc4F)CC(C2)O3)cc1 | >5.5 mg/kg
60 | CN(CCN1CC2CN(CCCOc3ccc(F)cc3)CC(C1)O2)S(=O)(=O)c1ccc(C#N)cc1 | >5.5 mg/kg
61 | N#Cc1ccc(CN2CC3CN(CCNS(=O)(=O)c4ccc(F)cc4)CC(C2)O3)cc1 | >5.5 mg/kg
62 | N#Cc1ccc(CN2CC3CN(CCNS(=O)(=O)c4cccc(C#N)c4)CC(C2)O3)cc1 | >5.5 mg/kg
63 | CN(CCN1CC2CN(CCc3ccccc3)CC(C1)O2)S(=O)(=O)c1ccc(C#N)cc1 | >5.5 mg/kg
64 | N#Cc1ccc(S(=O)(=O)NCCCN2CC3CN(Cc4ccccc4)CC(C2)O3)cc1 | >5.5 mg/kg
65 | N#Cc1ccc(S(=O)(=O)NCCN2CC3CN(Cc4ccc(C#N)cc4F)CC(C2)O3)cc1 | >5.5 mg/kg
66 | CN(CCN1CC2CN(CCc3cccc(F)c3)CC(C1)O2)S(=O)(=O)c1ccc(C#N)cc1 | >5.5 mg/kg
67 | N#Cc1ccc(CN2CC3CN(CCCNS(=O)(=O)c4ccc(C#N)cc4)CC(C2)O3)cc1 | >5.5 mg/kg
68 | N#Cc1ccc(CN2CC3CN(CCNS(=O)(=O)c4ccccc4C#N)CC(C2)O3)cc1 | >5.5 mg/kg
69 | N#Cc1ccc(CNS(=O)(=O)CCN2CC3CN(CCc4ccc(F)cc4)CC(C2)O3)cc1 | >5.5 mg/kg
70 | N#Cc1cccc(S(=O)(=O)NCCN2CC3CN(CCOc4ccc(C#N)cc4F)CC(C2)O3)c1 | >5.5 mg/kg
71 | CN(CCCN1CC2CN(CCOc3ccc(C#N)cc3F)CC(C1)O2)S(=O)(=O)c1ccccc1 | >5.5 mg/kg
72 | N#Cc1ccc(OCCN2CC3CN(CCNS(=O)(=O)c4ccccc4)CC(C2)O3)c(F)c1 | >5.5 mg/kg
73 | CN(CCN1CC2CN(CCOc3c(F)cccc3F)CC(C1)O2)S(=O)(=O)c1ccc(C#N)cc1 | >5.5 mg/kg
74 | N#Cc1ccc(OCCCN2CC3CN(CCNS(=O)(=O)c4ccccc4C#N)CC(C2)O3)cc1 | >5.5 mg/kg
75 | N#Cc1ccc(OCCN2CC3CN(CCCNS(=O)(=O)c4ccc(F)cc4F)CC(C2)O3)c(F)c1 | >5.5 mg/kg
76 | N#Cc1ccc(S(=O)(=O)NCCCN2CC3CN(CCc4ccc(F)c(F)c4)CC(C2)O3)cc1 | >5.5 mg/kg
77 | CN(CCN1CC2CN(CCc3ccc(F)cc3)CC(C1)O2)S(=O)(=O)c1ccc(C#N)cc1 | >5.5 mg/kg
78 | N#Cc1ccc(S(=O)(=O)NCCN2CC3CN(Cc4nc5ccccc5o4)CC(C2)O3)cc1 | >5.5 mg/kg
